How the values were obtained:
[1] = system: MOLM-14 D835Y cells, FLT3 ITD and FLT3 D835Y; assay: Cell proliferation assay (CellTiter-Glo), MOLM-14 D835Y; type: cell-based; details: Homo sapiens, 72 h, 3d-Growth, GMean
Summary of the method: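 MOLM-14 AML cells (endogenous FLT3 ITD, AC220-selected D835Y or F691L variants) or murine Ba/F3 expressing full-length FLT3 ITD/D835Y, without IL-3 for FLT3 dependence, 1×10^4 cells/well. Eight-point 1:3 series from 1 μM final, 0.2% DMSO, 3 days at 37 °C. CellTiter-Glo luminescence (ATP) gave IC50.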

[2] = biological target: T1, FLT3-ITD (Homo sapiens, UniProt P36888); assay: AlphaScreen kinase assay with recombinant enzyme, FLT3-ITD; type: biochemical; details: 8pt; read-out: FLT3_ITD 8pt: IC50
T1 sequence (P36888 1-993): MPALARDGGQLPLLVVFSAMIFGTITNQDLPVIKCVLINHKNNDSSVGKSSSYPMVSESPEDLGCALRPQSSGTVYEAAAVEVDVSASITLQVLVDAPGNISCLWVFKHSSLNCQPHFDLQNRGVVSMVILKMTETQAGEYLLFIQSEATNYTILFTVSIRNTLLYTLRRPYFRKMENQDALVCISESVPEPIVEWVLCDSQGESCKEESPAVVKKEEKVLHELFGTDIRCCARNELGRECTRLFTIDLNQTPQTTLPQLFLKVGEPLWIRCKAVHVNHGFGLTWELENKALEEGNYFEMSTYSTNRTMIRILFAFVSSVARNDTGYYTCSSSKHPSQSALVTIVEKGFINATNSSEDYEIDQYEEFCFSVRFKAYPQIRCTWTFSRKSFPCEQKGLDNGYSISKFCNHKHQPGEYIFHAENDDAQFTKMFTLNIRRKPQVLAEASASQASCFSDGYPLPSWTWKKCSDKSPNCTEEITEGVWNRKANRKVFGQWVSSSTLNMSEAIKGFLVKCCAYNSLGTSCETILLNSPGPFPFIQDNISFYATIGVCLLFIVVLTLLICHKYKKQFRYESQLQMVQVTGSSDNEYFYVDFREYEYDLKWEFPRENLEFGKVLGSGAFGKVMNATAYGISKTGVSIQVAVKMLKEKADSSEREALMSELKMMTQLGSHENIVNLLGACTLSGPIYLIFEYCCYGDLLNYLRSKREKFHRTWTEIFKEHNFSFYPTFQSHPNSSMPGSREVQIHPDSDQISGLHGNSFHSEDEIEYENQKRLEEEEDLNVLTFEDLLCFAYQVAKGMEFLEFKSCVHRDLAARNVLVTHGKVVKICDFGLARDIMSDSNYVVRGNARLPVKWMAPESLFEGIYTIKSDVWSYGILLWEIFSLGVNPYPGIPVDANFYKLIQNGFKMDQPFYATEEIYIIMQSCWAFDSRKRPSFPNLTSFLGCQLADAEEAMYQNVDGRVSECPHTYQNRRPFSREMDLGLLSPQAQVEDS
Method: In order to determine the effect of compounds on FLT3 catalytic activity, kinase assays using recombinant enzymes and AlphaScreen® technology have been established. The catalytic activity of c-kit activity was also measured to determine selectivity of the compounds. When the kinases are catalytically active, they phosphorylate a biotinylated peptide substrate on tyrosine residues. Using AlphaScreen® technology, the ability of the compounds to affect the catalytic activity of the kinases can be measured quantitatively. The peptide substrate is immobilized by the AlphaScreen® Streptavidin Donor beads and, upon phosphorylation by a tyrosine kinase, can bind to AlphaScreen® Anti-Phosphotyrosine (PY20) Acceptor beads. Upon excitation of these beads with laser light at 680 nm, singlet oxygen is produced. This singlet oxygen is rapidly quenched, unless the AlphaScreen® Anti-Phosphotyrosine (PY20) Acceptor beads are in close proximity, in which case a proximity signal can be measured at 580 nm. In the presence of catalytic activity, there is a very strong proximity signal. Selective kinase inhibitors affect a decrease in this proximity signal through a decrease in tyrosine phosphorylation of the peptide substrate.
The assay was performed as summarized below.
Poly (Glu4-Tyr) Peptide, biotin conjugate [Biotin-GG(EEEEY)10EE] (SEQ ID NO: 4)
Final concentration=30 nM
Final concentration for IC50 determination=10 μM (FLT3-D835Y or FLT3-ITD) or 100 μM (c-KIT)
AlphaScreen® Phosphotyrosine (PY20) Assay Kit
Final concentration=10 μg/mL
Dilute compounds in DMSO to 20× final concentration.
Add 1 μl of compound to each well of 384 well reaction plate (Perkin Elmer #6005359).
Mix enzyme and Poly (Glu4-Tyr) Peptide substrate at 1.33× final concentration in assay buffer.
Mix ATP at 5× final concentration in assay buffer.
Add 15 μL enzyme/substrate mixture to the reaction plate.
Add 4 μL of ATP to the reaction plate.
Mix Streptavidin Donor beads at 6× final concentration in Stop/Detection buffer.
Add 5 μL Streptavidin Donor beads to the reaction plate. Centrifuge 1 minute, shake to mix, and incubate at room temperature for 20 minutes.
Mix Anti-Phosphotyrosine (PY20) Acceptor beads at 6× final concentration in Stop/Detection buffer.
Add 5 μL Anti-Phosphotyrosine (PY20) beads to the reaction plate.
Centrifuge 1 minute, shake to mix, and incubate at room temperature for 60 minutes.
Read plate on Wallac EnVision™ 2103 Multilabel Reader.

Compound	IC50 [1]	IC50 [2]
CC(C)(C#N)NC(=O)c1cccc(-c2cnc3[nH]c(-c4ccccc4)cc3c2)n1 [Compound P-0118, N-(1-cyano-1-methyl-ethyl)-6-(2-phenyl-1H-pyrrolo[2,3-b]pyridin-5-yl)pyridine-2-carboxamide]	0.0001 to 10 µM	0.0001 to 10 µM
CN(CCC#N)C(=O)c1cccc(-c2cnc3[nH]c(-c4ccccc4)cc3c2)n1 [Compound P-0119, N-(2-cyanoethyl)-N-methyl-6-(2-phenyl-1H-pyrrolo[2,3-b]pyridin-5-yl)pyridine-2-carboxamide]	0.0001 to 10 µM	0.0001 to 10 µM
N#CC1CCN(C(=O)c2cccc(-c3cnc4[nH]c(C5=CCCCC5)cc4c3)n2)C1 (stereo not shown) [Compound P-0120, 1-[6-[2-(cyclohexen-1-yl)-1H-pyrrolo[2,3-b]pyridin-5-yl]pyridine-2-carbonyl]pyrrolidine-3-carbonitrile]	0.0001 to 10 µM	0.0001 to 10 µM
N#C[C@@H]1CCN(C(=O)c2cccc(-c3cnc4[nH]c(-c5ccccc5)cc4c3)n2)C1 [Compound P-0122, (3R)-1-[6-(2-phenyl-1H-pyrrolo[2,3-b]pyridin-5-yl)pyridine-2-carbonyl]pyrrolidine-3-carbonitrile]	0.0001 to 10 µM	0.0001 to 10 µM
CC(C)(C#N)CNC(=O)c1cccc(-c2cnc3[nH]c(C4=CCCCC4)cc3c2)n1 [Compound P-0123, N-(2-cyano-2-methyl-propyl)-6-[2-(cyclohexen-1-yl)-1H-pyrrolo[2,3-b]pyridin-5-yl]pyridine-2-carboxamide]	0.0001 to 10 µM	0.0001 to 10 µM
N#CCCNC(=O)c1cccc(-c2cnc3[nH]c(-c4ccccc4)c(Cl)c3c2)n1 [Compound P-0125, 6-(3-chloro-2-phenyl-1H-pyrrolo[2,3-b]pyridin-5-yl)-N-(2-cyanoethyl)pyridine-2-carboxamide]	0.0001 to 10 µM	0.0001 to 10 µM
CC(C)(C#N)CNC(=O)c1cccc(-c2cnc3[nH]c(-c4ccccc4)c(Br)c3c2)n1 [Compound P-0126, 6-(3-bromo-2-phenyl-1H-pyrrolo[2,3-b]pyridin-5-yl)-N-(2-cyano-2-methyl-propyl)pyridine-2-carboxamide]	0.0001 to 10 µM	0.0001 to 10 µM
CC(C)(C#N)CNC(=O)c1cccc(-c2cnc3[nH]c(-c4ccccc4)c(I)c3c2)n1 [Compound P-0127, N-(2-cyano-2-methyl-propyl)-6-(3-iodo-2-phenyl-1H-pyrrolo[2,3-b]pyridin-5-yl)pyridine-2-carboxamide]	0.0001 to 10 µM	0.0001 to 10 µM
Cc1cc(C#N)ccc1-c1cc2cc(-c3cccc(C(=O)N4CCC(C#N)C4)n3)cnc2[nH]1 (stereo not shown) [Compound P-0130, 1-[6-[2-(4-cyano-2-methyl-phenyl)-1H-pyrrolo[2,3-b]pyridin-5-yl]pyridine-2-carbonyl]pyrrolidine-3-carbonitrile]	0.0001 to 10 µM	0.0001 to 10 µM
CC1(C)CC=C(c2cc3cc(-c4cccc(C(=O)N5CCC(C#N)C5)n4)cnc3[nH]2)CC1 (stereo not shown) [Compound P-0131, 1-[6-[2-(4,4-dimethylcyclohexen-1-yl)-1H-pyrrolo[2,3-b]pyridin-5-yl]pyridine-2-carbonyl]pyrrolidine-3-carbonitrile]	0.0001 to 10 µM	0.0001 to 10 µM
N#CC1CCN(C(=O)c2cccc(-c3cnc4[nH]c(C5=CCOCC5)cc4c3)n2)C1 (stereo not shown) [Compound P-0132, 1-[6-[2-(3,6-dihydro-2H-pyran-4-yl)-1H-pyrrolo[2,3-b]pyridin-5-yl]pyridine-2-carbonyl]pyrrolidine-3-carbonitrile]	0.0001 to 10 µM	0.0001 to 10 µM
N#Cc1cccc(-c2cc3cc(-c4cccc(C(=O)N5CCC(C#N)C5)n4)cnc3[nH]2)c1 (stereo not shown) [Compound P-0133, 1-[6-[2-(3-cyanophenyl)-1H-pyrrolo[2,3-b]pyridin-5-yl]pyridine-2-carbonyl]pyrrolidine-3-carbonitrile]	0.0001 to 10 µM	0.0001 to 10 µM
N#CC1CCN(C(=O)c2cccc(-c3cnc4[nH]c(-c5cnn(C(F)F)c5)cc4c3)n2)C1 (stereo not shown) [Compound P-0134, 1-[6-[2-[1-(difluoromethyl)pyrazol-4-yl]-1H-pyrrolo[2,3-b]pyridin-5-yl]pyridine-2-carbonyl]pyrrolidine-3-carbonitrile]	0.0001 to 10 µM	0.0001 to 10 µM
CC(C)(C)OC(=O)N1CC=C(c2cc3cc(-c4cccc(C(=O)N5CCC(C#N)C5)n4)cnc3[nH]2)C1 (stereo not shown) [Compound P-0135, tert-butyl 3-[5-[6-(3-cyanopyrrolidine-1-carbonyl)-2-pyridyl]-1H-pyrrolo[2,3-b]pyridin-2-yl]-2,5-dihydropyrrole-1-carboxylate]	0.0001 to 10 µM	0.0001 to 10 µM
N#CC1CCN(C(=O)c2cccc(-c3cnc4[nH]c(C5=CCN(C(=O)C6CC6)C5)cc4c3)n2)C1 (stereo not shown) [Compound P-0136, 1-[6-[2-[1-(cyclopropanecarbonyl)-2,5-dihydropyrrol-3-yl]-1H-pyrrolo[2,3-b]pyridin-5-yl]pyridine-2-carbonyl]pyrrolidine-3-carbonitrile]	0.0001 to 10 µM	0.0001 to 10 µM
N#CC1(CNC(=O)c2cccc(-c3cnc4[nH]c(-c5ccccc5)cc4c3)n2)CC1 [Compound P-0137, N-[(1-cyanocyclopropyl)methyl]-6-(2-phenyl-1H-pyrrolo[2,3-b]pyridin-5-yl)pyridine-2-carboxamide]	0.0001 to 10 µM	0.0001 to 10 µM
CC(C)(C#N)CNC(=O)c1cccc(-c2cnc3[nH]c(-c4ccccc4)c(Cl)c3c2)n1 [Compound P-0138, 6-(3-chloro-2-phenyl-1H-pyrrolo[2,3-b]pyridin-5-yl)-N-(2-cyano-2-methyl-propyl)pyridine-2-carboxamide]	0.0001 to 10 µM	0.0001 to 10 µM
N#CC1(NC(=O)c2cccc(-c3cnc4[nH]c(-c5ccccc5)c(Cl)c4c3)n2)CC1 [Compound P-0139, 6-(3-chloro-2-phenyl-1H-pyrrolo[2,3-b]pyridin-5-yl)-N-(1-cyanocyclopropyl)pyridine-2-carboxamide]	0.0001 to 10 µM	0.0001 to 10 µM
CC(C)(C)NC(=O)c1cccc(-c2cnc3[nH]c(-c4ccccc4)cc3c2)n1 [Compound P-0140, N-tert-butyl-6-(2-phenyl-1H-pyrrolo[2,3-b]pyridin-5-yl)pyridine-2-carboxamide]	0.0001 to 10 µM	0.0001 to 10 µM
CC(C)(C#N)CNC(=O)c1cccc(-c2cnc3[nH]c(C4=CCN(C(=O)C5CC5)C4)cc3c2)n1 [Compound P-0141, N-(2-cyano-2-methyl-propyl)-6-[2-[1-(cyclopropanecarbonyl)-2,5-dihydropyrrol-3-yl]-1H-pyrrolo[2,3-b]pyridin-5-yl]pyridine-2-carboxamide]	0.0001 to 10 µM	0.0001 to 10 µM

— patent US9938273B2 (Plexxikon Inc., priority 2015, dated 2018)
